Data published in patent publication US5322846A, “4-methylthiazole derivatives, their methods of preparation and the pharmaceutical compositions in which they are present” (Institut de Recherches Chimiques et Biologiques Appliquees …, priority 1990, dated 1994).
Read-outs that look alike come from different tables or passages of the source.

What was measured:
[1] = target: T1, postsynaptic alpha-adrenergic receptors (Rattus norvegicus, UniProt P43140); experiment: Alpha-blocking activity towards norepinephrine on isolated rat vas deferens; type: biochemical; details: -log of concentration requiring doubled norepinephrine; for Kb: read-out: pA2 (converted)
T1 construct: causes contraction of the isolated vas deferens; from tissue; host or cells: isolated rat vas deferens
T1 sequence (P43140 1-466): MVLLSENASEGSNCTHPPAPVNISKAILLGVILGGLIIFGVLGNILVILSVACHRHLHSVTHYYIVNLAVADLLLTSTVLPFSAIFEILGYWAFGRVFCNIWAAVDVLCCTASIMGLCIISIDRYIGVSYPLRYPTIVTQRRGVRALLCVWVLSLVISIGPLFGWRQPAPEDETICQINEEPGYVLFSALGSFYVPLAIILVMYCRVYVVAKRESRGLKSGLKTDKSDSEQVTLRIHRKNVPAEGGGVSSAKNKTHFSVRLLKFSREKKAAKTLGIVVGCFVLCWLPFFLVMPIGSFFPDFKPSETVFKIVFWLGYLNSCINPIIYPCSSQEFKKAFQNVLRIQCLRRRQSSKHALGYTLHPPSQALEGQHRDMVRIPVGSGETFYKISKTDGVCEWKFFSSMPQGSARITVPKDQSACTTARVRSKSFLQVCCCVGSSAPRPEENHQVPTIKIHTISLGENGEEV
Method: Stimulation of the postsynaptic alpha-adrenergic receptors by norepinephrine causes contraction of the isolated vas deferens.
The concentration of product in whose presence the norepinephrine concentration must be doubled in order to obtain the same effect as in the absence of said product is determined. The logarithm of this concentration, with the opposite sign, constitutes the pA2 of the products.
Their alpha-blocking activity is high since it appears for low concentrations of between 10^-6 M and 10^-8 M.

[2] = Acute toxicity in mice (oral, LD50); details: mouse, in vivo, male mice, single dose, 14-day observation
Method: The products were administered orally in a single dose to male mice with an average weight of 22 g. The mortality was recorded after a 14-day observation period.
The results are expressed in the form of the 50% lethal dose (LD50), i.e. the theoretical dose in mg.kg^-1, administered orally, which causes the death of 50% of the animals.
The majority of the molecules have an LD50 of more than 1 g.kg^-1. These are therefore products with a low toxicity after a single administration.

[3] = tested on: lethal effect of norepinephrine; experiment: Adrenolytic activity in vivo on the lethal effect of norepinephrine in rats; details: for ED50: Rattus norvegicus, wake male rats, norepinephrine 0.4 mg.kg^-1 intravenous, prior administration of product, read-out: ED50 (dose which protects 50% of the animals); for adrenolytic activity in the whole animals: rats, in words
Method: The intravenous injection of norepinephrine (0.4 mg.kg^-1) into wake male rats causes the death of 100% of the animals. The prior administration of a substance which has an alpha-blocking property makes it possible to reduce this toxicity.
The results are expressed in the form of the 50% effective dose (ED50), i.e. the dose in mg.kg^-1 which protects 50% of the animals (Table 5).

[4] = tested on: hypertension induced by norepinephrine; experiment: Inhibitory activity towards hypertension induced by norepinephrine in anesthetized rabbits; type: in vivo; details: Oryctolagus cuniculus; anesthetized male rabbits, intravenous; read-out: ID50 (50% inhibition of norepinephrine-induced hypertension)
Method: The blood pressure is measured by catheterization of the left carotid artery of anesthetized male rabbits. An increase in blood pressure is induced by an intravenous injection of norepinephrine. This hypertension can be inhibited by the prior administration of molecules with an alpha-blocking potential.
These are presented in Table 6 in the form of the 50% inhibitory dose (ID50), which is defined as the dose of product which, when administered intravenously, causes a 50% inhibition of the hypertension induced by norepinephrine.

[5] = tested on: femoral blood pressure and heart rate; experiment: Cardiovascular activity (blood pressure and heart rate) in anesthetized rats; type: in vivo; details: for Heart rate, maximum effect in % / ED25: I.V., pentobarbital-anesthetized rats; for ED25: Rattus norvegicus, iv, 25% drop in average blood pressure; for hypotensive potential compared with nicardipine: ED25 values 5 min after I.V. injection, in words
Method: The cardiovascular effects of three products were studied in rats anesthetized with pentobarbital and placed under artificial respiration. The femoral blood pressure and the heart rate are recorded by means of a GOULD-BRUSH apparatus.
The products are administered intravenously in increasing doses. Three animals are tested per product. The dose which causes a 25% drop in average blood pressure (ED25) was evaluated for each product and compared with nicardipine 1 to 5 min after administration.
The products have dose-dependent hypotensive effects but have little or no effect on the heart rate (Table 7). The most hypotensive in terms of the effective dose is B 1395 (ED25 of 0.004 mg.kg^-1).

[6] = 1 min, 1 minute, read-out: Blood pressure: Hypotension, ED25 at 1 minute
[7] = 5 min, 5 minutes, read-out: Blood pressure: Hypotension, ED25 at 5 minutes

| SMILES | Kb [1] | LD50 at 336 h [2] | ED50 [3] | pA2 [1] | ED50 [4] | Heart rate, maximum effect in % [5] | ED25 [5, 6] | ED25 [5, 7] | adrenolytic activity in the whole animals [3] | hypotensive potential compared with nicardipine [5] |
| --- | --- | --- | --- | --- | --- | --- | --- | --- | --- | --- |
| Cc1ncsc1OCCN1CCN(c2cccc(C(F)(F)F)c2)CC1 [B 1194, 4-methyl-5-[2-(4-m-trifluoromethylphenylpiperazin-1yl)ethoxy]thiazole] | 2570 nM | > 1000 mg/kg | 200 mg/kg |  |  |  |  |  |  |  |
| Cc1cccc(Cl)c1N1CCN(CCOc2scnc2C)CC1 [B 1366, 4-methyl-5-[2-[4-(6-chloro-2-methylphenyl)piperazin-1-yl]ethoxy]thiazole] | > 1000 nM | 740 mg/kg | 100 mg/kg |  |  |  |  |  |  |  |
| Cc1cc(Cl)ccc1N1CCN(CC(O)COc2scnc2C)CC1 (stereo not shown) [B 1406, 3-[4-(4-chloro-2-methylphenyl)piperazin-1-yl]-1-(4-methylthiazolyl-5-oxy)propan-2-ol] |  | 515 mg/kg | 8.1 mg/kg | 6.40 |  |  |  |  |  |  |
| Cc1ncsc1OCCN1CCN(c2ccccc2F)CC1 [B 1305, 4-methyl-5-[2-(4-o-fluorophenylpiperazin-1-yl)-ethoxy]thiazole] | 81.3 nM | > 1000 mg/kg | 35 mg/kg |  | 3 mg/kg |  |  |  |  |  |
| Cc1ncsc1OCCN1CCN(c2ccccc2)CC1 [B 1216, 4-methyl-5-[2-(4-phenylpiperazin-1-yl)ethoxy]thiazole] | 89.1 nM | > 1000 mg/kg | 33 mg/kg |  | > 3 mg/kg |  |  |  |  |  |
| CCCCCOc1ccccc1N1CCN(CC(O)COc2scnc2C)CC1 (stereo not shown) [B 1525, 3-(4-o-pentoxyphenylpiperazin-1-yl)-1-(4-methylthiazolyl-5-oxy)propan-2-ol] | 7.94 nM | > 1000 mg/kg | 1.27 mg/kg |  |  | -8% | 0.04 mg/kg | 0.04 mg/kg | very active |  |
| Cc1ncsc1OCC(O)CN1CCN(c2ccccc2OCC(C)C)CC1 (stereo not shown) [B 1431, 3-(4-o-phenylpiperazin-1-yl)-1-(4-methylthiazolyl-5-oxy)propan-2-ol] | 7.41 nM | 1000 mg/kg | 0.4 mg/kg |  |  | -12% | 0.1 mg/kg | 0.24 mg/kg | very active | on a level with that of nicardipine |
| CCCOc1ccccc1N1CCN(CCOc2scnc2C)CC1 [B 1242] |  |  |  |  |  |  |  |  | very active |  |
| Cc1ncsc1OCC(O)CN1CCN(c2ccccc2OC(C)C)CC1 (stereo not shown) [B 1429, 3-(4-o-isopropoxyphenylpiperazin-1-yl)-1-(4-methylthiazolyl-5-oxy)propan-2-ol] | 4.57 nM | 428 mg/kg | 0.5 mg/kg |  |  | -5.1% | 0.016 mg/kg | 0.03 mg/kg | very active |  |
| Cc1ncsc1OCC(O)CN1CCN(c2cccc(C(F)(F)F)c2)CC1 (stereo not shown) [B 1489, 3-(4-m-trifluoromethylphenylpiperazin-1-yl)-1-(4-methylthiazolyl-5-oxy)propan-2-ol] |  | > 1000 mg/kg | 59.7 mg/kg |  |  |  |  |  |  |  |
| CCOc1cccc(N2CCN(CCOc3scnc3C)CC2)c1 [B 1325, 4-methyl-5-[2-(4-m-ethoxyphenylpiperazin-1-yl)-ethoxy]thiazole] | 813 nM | > 1000 mg/kg | 49 mg/kg |  |  |  |  |  |  |  |
| Cc1ncsc1OCC(O)CN1CCN(c2ccccc2O)CC1 (stereo not shown) [B 1396, 3-(4-o-hydroxyphenylpiperazin-1-yl)-1-(4-methylthiazolyl-5-oxy)propan-2-ol] | 316 nM | 315 mg/kg | 0.6 mg/kg |  |  | 0% | 0.008 mg/kg | 0.06 mg/kg | very active | on a level with that of nicardipine |
| Cc1ncsc1OCCN1CCN(c2ccc(F)cc2)CC1 [B 1227, 4-methyl-5-[2-(4-p-fluorophenylpiperazin-1-yl)ethoxy]thiazole] | > 1000 nM | 1000 mg/kg | 30 mg/kg |  |  |  |  |  |  |  |
| Cc1ncsc1OCC(O)CN1CCN(c2cccc(Cl)c2)CC1 (stereo not shown) [B 1548, 3-(4-m-chlorophenylpiperazin-1-yl)-1-(4-methylthiazolyl-5-oxy)propan-2-ol] |  | > 500 mg/kg | 15.8 mg/kg |  |  |  |  |  | very active |  |
| Cc1ncsc1OCCN1CCN(c2ccccc2O)CC1 [B 1430, 4-methyl-5-[2-(4-o-hydroxyphenylpiperazin-1-yl)-ethoxy]thiazole] | 229 nM | 305 mg/kg | 8.3 mg/kg |  |  |  |  |  |  |  |
| COc1ccccc1N1CCN(CC(O)COc2scnc2C)CC1 (stereo not shown) [B 1510, 3-(4-o-methoxyphenylpiperazin-1-yl)-1-(4-methylthiazolyl-5-oxy)propan-2-ol] | 21.4 nM | 235 mg/kg | 0.52 mg/kg |  |  | -6% | 0.01 mg/kg | 0.01 mg/kg | very active |  |
| COc1ccccc1N1CCN(CCOc2scnc2C)CC1 [B 1223, 4-methyl-5-[2-(4-o-methoxyphenylpiperazin-1-yl)ethoxy]thiazole] | 269 nM | > 1000 mg/kg | 13 mg/kg |  |  |  |  |  |  |  |
| CCCOc1ccccc1N1CCN(CCOc2scnc2C)CC1 [B 1342, 4-methyl-5-[2-(4-o-propoxyphenylpiperazin-1-yl)-ethoxy]thiazole] | 16.2 nM | > 1000 mg/kg | 4 mg/kg |  | 7.3 mg/kg |  |  |  |  |  |
| Cc1ccc(Cl)cc1N1CCN(CCOc2scnc2C)CC1 [B 1313, 4-methyl-5-[2-[4-(5-chloro-2-methylphenyl)piperazin-1-yl]ethoxy]thiazole] | 81.3 nM | 770 mg/kg | 109 mg/kg |  |  |  |  |  |  |  |
| COC(=O)C1=C(C)NC(C)=C(C(=O)OCCN(C)Cc2ccccc2)C1c1cccc([N+](=O)[O-])c1 (stereo not shown) [NICARDIPINE, nicardipine, reference compound] |  |  |  |  |  | 0% | 0.0015 mg/kg | 0.2 mg/kg |  |  |
| Cc1cc(Cl)ccc1N1CCN(CCOc2scnc2C)CC1 [B 1259, 4-methyl-5-[2-[4-(4-chloro-2-methylphenyl)piperazin-1-yl]ethoxy]thiazole] | 1350 nM | 630 mg/kg | 45 mg/kg |  |  |  |  |  |  |  |
| Cc1ncsc1OCC(O)CN1CCN(c2ccccc2OCCC(C)C)CC1 (stereo not shown) [B 1552, 3-(4-o-isopentoxyphenylpiperazin-1-yl)-1-(4-methylthiazolyl-5-oxy)propan-2-ol] | 22.9 nM | > 1000 mg/kg | 1.55 mg/kg |  |  | -7.9% | 0.12 mg/kg | 0.25 mg/kg | very active | on a level with that of nicardipine |
| Cc1ncsc1OCC(O)CN1CCN(c2ccccc2OCC(C)(C)C)CC1 (stereo not shown) [B 1562, 3-(4-o-neopentoxyphenylpiperazin-1-yl)-1-(4-methylthiazolyl-5-oxy)propan-2-ol] |  | > 1000 mg/kg |  |  |  |  |  |  |  |  |
